Test results as given in patent US20250248979A1, “NOVEL GPX4 INHIBITORS AND USES THEREOF” (THE TRUSTEES OF COLUMBIA UNIVERSITY IN THE CITY OF NEW YORK, priority 2022, published 2025).
Like-named read-outs stand apart in the source and are kept apart here.

Experiments:
HT-1080 cells = assay: Cellular dose response assay, HT-1080 with and without Fer-1; type: cell-based, human; settings: for Selectivity: ferroptosis selectivity, IC50 with Fer-1 / IC50
Excerpt: HT-1080 (human [Homo sapiens] […] fibrosarcoma), A-673 (human [Homo sapiens] […] Ewing's sarcoma), and SK-HEP-1 (human [Homo sapiens] […] hepatic adenocarcinoma), cells were obtained from ATCC. Huh7 (human [Homo sapiens] […] hepatocellular carcinoma), HLF (human [Homo sapiens] […] hepatocellular carcinoma), HepG2 (human [Homo sapiens] […] hepatocellular carcinoma), cells were obtained from the Cancer Cell Bank at Columbia University Irving Medical Center. HT-1080, A-673, Huh-7, and HLF cells were grown in Dulbecco's Modified Eagle Medium (DMEM) supplemented with 10% heat inactivated fetal bovine serum (HI-FBS), 1% non-essential amino acids, and 1% penicillin streptomycin. HepG2 and SK-HEP-1 cells were grown in Eagle's Minimum Essential Medium (EMEM) supplemented with 10% HI-FBS, and 1% penicillin-streptomycin. All cells were cultured at 37° C. and 5% CO2.
HT-1080, HepG2, Huh7, HLF, and SK-HEP-1 cells were seeded into opaque white 384-well plates at 1500 cells per well then incubated at 37° C. with 5% CO2 overnight. The next day, compounds of interest were dissolved in DMSO and 12-point 2-fold dilution series were prepared with and without Fer-1. Cells were treated in triplicate (final DMSO concentration of 0.4% in all wells, including DMSO-only control wells) and incubated for a further 48 hours at 37° C. and 5% CO2. Cell viability was evaluated using CellTiter-Glo (Promega G7573) and luminescence was recorded on a Victor 5 plate reader. Data were analyzed in GraphPad Prism 9 and error bars represent standard deviation values for three technical replicates in a representative experiment.

GPX4 = target: T1, GPX4 (Homo sapiens, UniProt P36969); assay: GPX4 activity assay in cell lysates (NADPH-coupled); type: biochemical; design: endogenous in cells; host or cells: A-673 cell lysate; settings: 2.5 μM; 4th generation
T1 sequence (P36969 1-170 isoform P36969-2): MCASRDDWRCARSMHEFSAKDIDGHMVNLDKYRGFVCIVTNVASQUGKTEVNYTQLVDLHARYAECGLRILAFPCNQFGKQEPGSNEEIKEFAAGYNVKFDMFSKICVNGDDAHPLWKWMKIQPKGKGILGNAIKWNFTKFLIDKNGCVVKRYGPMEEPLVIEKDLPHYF
Procedure, shortened: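 Native GPX4 in lysates of A-673 cells grown with 20 nM sodium selenite; lysate preincubated with compound 45 min at 37 °C in pH 8.0 buffer with 3 mM GSH, 0.5 mM NADPH and glutathione reductase. Reaction started with phosphatidylcholine hydroperoxide; NADPH consumption followed at 340 nm over 25 min; triplicates.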

[1] = with Fer-1, Table 10, read-out: IC50 (μM) HT1080 + Fer-1
[2] = without Fer-1, Table 10, read-out: IC50 (μM) HT1080

SMILES	Selectivity (HT-1080 cells)	IC50 (HT-1080 cells; [1])	IC50 (HT-1080 cells; [2])	GPX4% inhibition at 2.5 μM (GPX4)	fold reduced activity relative to QW-852 (HT-1080 cells; HT1080)	IC50 (HT-1080 cells; read-out: IC50 HT1080)	IC50 (HT-1080 cells; without Fer-1, Table 10, read-out: IC50 HT1080)	ferroptosis induction / potency in HT-1080 cells, result in words (HT-1080 cells; RSL3 as control)
COc1ccc(-c2ccc3c(C(=O)NC(C)(C)COC(=O)C#C[Si](C)(C)C)nn(Cc4ccc(Cl)cc4)c3c2)cc1Cl [QW-832]	37.4	63.6 µM	1.7 µM	58.9 ± 9.0%	–	–	–	–
CC(C)(COC(=O)CCl)NC(=O)c1c2ccc(-c3ccc(N4CCOCC4)c(Cl)c3)cc2nn1Cc1cc(Cl)cc(Cl)c1 [QW-937]	2.7	2.7 µM	–	–	25 fold	1 µM	–	–
CC(C)(COC(=O)CCl)NC(=O)c1nn(Cc2ccc(Cl)nc2)c2cc(-c3ccc(N4CCOCC4)c(Cl)c3)ccc12 [QW-898]	6.8	8.1 µM	1.2 µM	–	–	–	–	–
COc1ccc(-c2ccc3c(C(=O)NC(C)(C)COC(=O)CCl)nn(Cc4cc(C(F)(F)F)cc(C(F)(F)F)c4)c3c2)cc1Cl [QW-930]	0.6	13 µM	21.8 µM	–	–	–	–	–
CC(C)(COC(=O)CBr)NC(=O)c1nn(Cc2cc(Cl)cc(Cl)c2)c2cc(-c3ccc(N4CCOCC4)c(Cl)c3)ccc12 [QW-1004]	2.3	8.9 µM	3.8 µM	–	–	–	–	–
CCCOc1ccc(-c2ccc3c(C(=O)NC(C)(C)COC(=O)CCl)nn(Cc4cc(Cl)cc(Cl)c4)c3c2)cc1Cl [QW-987]	>55	> 40 µM	0.72 µM	–	–	–	–	–
COc1ccc(-c2ccc3c(C(=O)NC(C)(C)COC(=O)CCl)nn(Cc4cccc(C(C)=O)c4)c3c2)cc1Cl [QW-892]	1.6	37.7 µM	23.7 µM	–	–	–	–	–
CC(C)(CNC(=O)CCl)NC(=O)c1nn(Cc2cc(Cl)cc(Cl)c2)c2cc(-c3ccc(N4CCOCC4)c(Cl)c3)ccc12 [QW-929]	2.9	4.6 µM	1.6 µM	–	–	–	–	–
CC(C)(COC(=O)CCl)NC(=O)c1nn(Cc2ccc(Cl)c(Cl)c2)c2cc(-c3ccc(N4CCOCC4)c(Cl)c3)ccc12 [QW-968]	–	> 40 µM	> 40 µM	–	–	–	–	–
CC(C)(COC(=O)C(Cl)Cl)NC(=O)c1nn(Cc2cc(Cl)cc(Cl)c2)c2cc(-c3ccc(N4CCOCC4)c(Cl)c3)ccc12 [QW-1000]	–	> 40 µM	> 40 µM	–	–	–	–	–
CSc1ccc(-c2ccc3c(C(=O)NC(C)(C)COC(=O)CCl)nn(Cc4cc(Cl)cc(Cl)c4)c3c2)cc1Cl [QW-984]	>53	> 40 µM	0.75 µM	–	–	–	–	–
CC(C)(COC(=O)CCl)NC(=O)c1nn(Cc2cccc(Cl)c2Cl)c2cc(-c3ccc(N4CCOCC4)c(Cl)c3)ccc12 [QW-959]	508.5	610 µM	1.2 µM	–	–	–	–	–
CC(C)(NC(=O)c1nn(Cc2cc(Cl)cc(Cl)c2)c2cc(-c3ccc(N4CCOCC4)c(Cl)c3)ccc12)C(C)(C)OC(=O)CCl [QW-887]	>174	> 40 µM	–	–	–	–	0.233 µM	–
CC(C)(COC(=O)CCl)NC(=O)c1nn(Cc2cc(Cl)cc(Cl)c2)c2cc(Br)ccc12 [QW-954]	2.0	11.8 µM	5.9 µM	–	–	–	–	–
CC(C)Oc1c(Cl)cc(-c2ccc3c(C(=O)NC(C)(C)COC(=O)CCl)nn(Cc4cc(Cl)cc(Cl)c4)c3c2)cc1Cl [QW-996]	17.8	12.8 µM	0.72 µM	–	–	–	–	–
COc1ccc(-c2ccc3c(C(=O)NC(C)(C)COC(=O)CCl)nn(Cc4cccc(Cl)c4Cl)c3c2)cc1Cl [QW-958]	13.7	31.6 µM	2.3 µM	–	–	–	–	–

SMILES	Selectivity (HT-1080 cells)	IC50 (HT-1080 cells; [1])	IC50 (HT-1080 cells; [2])	GPX4% inhibition at 2.5 μM (GPX4)	fold reduced activity relative to QW-852 (HT-1080 cells; HT1080)	IC50 (HT-1080 cells; read-out: IC50 HT1080)	IC50 (HT-1080 cells; without Fer-1, Table 10, read-out: IC50 HT1080)	ferroptosis induction / potency in HT-1080 cells, result in words (HT-1080 cells; RSL3 as control)
CC(C)(COC(=O)CCl)NC(=O)c1c2ccc(Br)cc2nn1Cc1ccc(-c2ccc(N3CCOCC3)c(Cl)c2)cc1 [QW-912]	3.4	5.1 µM	1.5 µM	–	–	–	–	–
CC(C)(COC(=O)CCl)NC(=O)c1nn(Cc2cc(Cl)cc(Cl)c2)c2cc(-c3ccc(N4CCOCC4)cc3)ccc12 [QW-988]	6.7	19.5 µM	2.9 µM	–	–	–	–	–
COc1ccc(-c2ccc3c(C(=O)NC(C)(C)COC(=O)CCl)nn(Cc4cc(Cl)ccc4Cl)c3c2)cc1Cl [QW-946]	133.4	454 µM	3.4 µM	–	–	–	–	–
CC(=O)OCC(C)(C)NC(=O)c1nn(Cc2cc(Cl)cc(Cl)c2)c2cc(-c3ccc(N4CCOCC4)c(Cl)c3)ccc12 [QW-999]	–	> 40 µM	> 40 µM	–	–	–	–	inactive in cellular assay
COc1ccc(-c2ccc3c(C(=O)NC(C)(C)C(C)(C)OC(=O)CCl)nn(Cc4cc(Cl)cc(Cl)c4)c3c2)cc1Cl [QW-886]	4.5	55.3 µM	12.4 µM	–	–	–	–	–
COC(=O)c1ccc(-c2ccc3c(C(=O)NC(C)(C)COC(=O)CCl)nn(Cc4cc(Cl)cc(Cl)c4)c3c2)cc1Cl [QW-992]	7.5	23.3 µM	3.1 µM	–	–	–	–	–
CC(=O)c1cccc(Cn2nc3cc(-c4ccc(N5CCOCC5)c(Cl)c4)ccc3c2C(=O)NC(C)(C)COC(=O)CCl)c1 [QW-911]	3.8	5 µM	1.3 µM	–	–	–	–	–
CC(C)(COC(=O)CCl)NC(=O)c1nn(Cc2cc(C(F)(F)F)cc(C(F)(F)F)c2)c2cc(-c3ccc(N4CCOCC4)c(Cl)c3)ccc12 [QW-931]	6.6	34.3 µM	5.2 µM	–	–	–	–	–
CC(C)(COC(=O)CCl)NC(=O)c1c2ccc(-c3ccc(N4CCOCC4)c(Cl)c3)cc2nn1Cc1ccc(Cl)c(Cl)c1 [QW-973]	1.4	5.8 µM	4.2 µM	–	–	–	–	–
COc1c(Cl)cc(-c2ccc3c(C(=O)NC(C)(C)COC(=O)CCl)nn(Cc4cc(Cl)cc(Cl)c4)c3c2)cc1Cl [QW-998]	>114.3	> 40 µM	0.35 µM	–	–	–	–	–
CC(C)(COC(=O)CCl)NC(=O)c1nn(Cc2cc(Cl)cc(Cl)c2)c2ccc(-c3ccc(N4CCOCC4)c(Cl)c3)cc12 [QW-980]	1.5	8.4 µM	5.5 µM	–	–	–	–	–
CC(C)(COC(=O)CCl)NC(=O)c1nn(Cc2cc(Cl)cc(Cl)c2)c2cc(-c3ccc(C(F)(F)F)c(Cl)c3)ccc12 [QW-995]	1.1	47.1 µM	42.3 µM	–	–	–	–	–
COc1ccc(-c2ccc3c(C(=O)NC(C)(C)COC(=O)CCl)nn(Cc4ccc(Cl)nc4)c3c2)cc1Cl [QW-897]	7.5	9 µM	1.2 µM	–	–	–	–	–
COc1ccc(-c2ccc3c(C(=O)NC(C)(C)CNC(=O)CCl)nn(Cc4cc(Cl)cc(Cl)c4)c3c2)cc1Cl [QW-927]	5.1	8.2 µM	1.6 µM	–	–	–	–	–
CC(C)(COC(=O)c1ccc(S(C)(=O)=O)c([N+](=O)[O-])c1)NC(=O)c1nn(Cc2cc(Cl)cc(Cl)c2)c2cc(-c3ccc(N4CCOCC4)c(Cl)c3)ccc12 [QW-1006]	–	> 40 µM	> 40 µM	–	–	–	–	–
CC(C)(COC(=O)CCl)NC(=O)c1c2ccc(-c3ccc(N4CCOCC4)c(Cl)c3)cc2nn1Cc1cc(C(F)(F)F)cc(C(F)(F)F)c1 [QW-945]	4.0	10.7 µM	2.7 µM	–	–	–	–	–
